# Assay results taken from patent publication US4965280A, “Antifungal carbinols” (E. I. Du Pont de Nemours and Company, priority 1989, dated 1990).
# How the values were obtained:
# Plasmorpara viticola = assay: Example I grape downy mildew; type: in vivo; details: read-out: disease control rating, Ex. I
# How it was run: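 Compounds were dissolved in acetone (6% of final volume) and suspended at 100 or 20 ppm in purified water with 250 ppm TREM 014 surfactant (polyhydric alcohol esters). Grape seedlings were sprayed with this suspension to run-off.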
# [1] = tested on: Erysiphe graminis f. sp. tritici; assay: Example D wheat powdery mildew; type: in vivo; details: Blumeria graminis, 144 h, read-out: disease control rating, Ex. D
# How it was run: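 Compounds were dissolved in acetone (6% of final volume), then suspended at 100 or 20 ppm in purified water containing 250 ppm TREM 014 surfactant. Wheat seedlings were sprayed with this suspension to run-off.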
# WATERCHESTNUT = assay: Test C rice paddy; type: in vivo, Eleocharis spp.; details: Eleocharis, 504 h, 21 days, read-out: plant response; for pest or weed control at 64 g/ha: 0064 G/HA; for pest or weed control at 125 g/ha: 0125 G/HA; for pest or weed control at 250 g/ha: 0250 G/HA; for pest or weed control at 500 g/ha: 0500 G/HA
# From the text: (§1) Sixteen cm diameter Airlite plastic pots were partially filled with Tama slit loam soil and the soil saturated with water. Japonica and Indica rice seedlings a the 2.0 to 2.5 leaf stage were transplanted into 1/3 of the pots. Into another third of the pots were transplanted seedling or sprouted tubers of water plantain (Alisma trivale), Scripus (Scirpus paludosus), Cyperus (Cyperus esculentus), and arrowhead (Sagittaria spp.). The remaining pots were planted with barnyardgrass (Echinochloa crusgalli) seeds and sprouted tubes of water chestnut (Eleocharis spp.). These weeds all represent major rice weeds or genera of weeds important in rice. Three to four days after planting, the water level was raised to 3 cm (about 1200 ml/pot) and maintained a this level throughout the test. Chemical treatments were applied directly to the paddy water, within 24 hours of raising the water, after being formulated in a nonphytotoxic solvent. The pots were maintained in the greenhouse.
# GIANT FOXTAIL = assay: Test D; type: in vivo, Setaria faberii
# Pythium aphanadermatum = assay: Example J cucumber damping off; type: in vivo; details: Pythium, 336 h; 5 kg/ha; read-out: disease control rating, Ex. J
# How it was run: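 Seeds and soil were inoculated with a mix of sand, cereal and Pythium aphanadermatum mycelium, the fungus responsible for cucumber damping off. They were kept in a growth chamber at 30° C. for 14 days, and disease was then rated to assess control.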
# Rhizoctonia solani = assay: Example K cotton blight; type: in vivo; details: 336 h, 5 kg/ha, read-out: disease control rating, Ex. K
# Procedure: […] Seeds and soil were then inoculated with a mixture of sand, cereal and mycelium of the fungus Rhizoctonia solani, causal agent of cotton blight, and incubated in a growth chamber at 30° C. for 14 days. Disease ratings were then made.
# PURPLE NUTSEDGE = assay: Test D; type: in vivo, Cyperus rotundus
# Phytophthora infestans = assay: whole plant or invertebrate; type: in vivo; details: Phytophthora infestans, in Solanum lycopersicum, read-out: disease control rating, Ex. H, 100 PPM
# RICE INDICA EFF = assay: Test C rice paddy; type: in vivo; details: Oryza sativa, 504 h, 21 days, read-out: plant response; for pest or weed control at 64 g/ha: 0064 G/HA; for pest or weed control at 125 g/ha: 0125 G/HA; for pest or weed control at 250 g/ha: 0250 G/HA; for pest or weed control at 500 g/ha: 0500 G/HA
# From the text: as §1
# Botrytis cinerea = assay: Example C bean grey mold; type: in vivo; details: Botrytis cinerea, 24 h, read-out: disease control rating, Ex. C
# How it was run: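 Test compounds were taken up in acetone (6% of final volume) and suspended at 100 or 20 ppm in purified water containing 250 ppm TREM 014 surfactant (polyhydric alcohol esters). Broad bean seedlings were sprayed with this suspension until run-off.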
# YELLOW NUTSEDGE = assay: Test C rice paddy; type: in vivo, Cyperus esculentus; details: 21 days
# From the text: as §1
# [2] = tested on: Candida albicans ATCC 11651; assay: In vitro antifungal MIC, microtiter broth dilution; details: Candida albicans, ATCC11651, 24 h, read-out: MIC values, C. albicans, 30°, 24 hours
# [3] = tested on: Fusarium oxysporum f. sp. cucumerinum; assay: Example L cucumber wilt; type: in vivo; details: 336 h, 5 kg/ha, read-out: disease control rating, Ex. L
# Procedure: […] Seeds and soil were then inoculated with a mixture of sand, cereal and mycelium of the fungus Fusarium oxysporum f. sp. cucumerinum, causal agent of cucumber wilt, and incubated in a growth chamber at 30° C. for 14 days. Disease ratings were then made.
# REDROOT PIGWEED = assay: Test E; type: in vivo, Amaranthus retroflexus
# BLACK NIGHTSHAD = assay: Test E; type: in vivo, Solanum nigrum
SMILES,pest or weed control at 100 ppm (Plasmorpara viticola),pest or weed control at 64 g/ha (WATERCHESTNUT),pest or weed control at 125 g/ha (WATERCHESTNUT),pest or weed control at 250 g/ha (WATERCHESTNUT),pest or weed control at 500 g/ha (WATERCHESTNUT),pest or weed control at 1000 g/ha (WATERCHESTNUT),pest or weed control at 5000 g/ha (Pythium aphanadermatum),pest or weed control at 100 ppm (Phytophthora infestans),pest or weed control at 64 g/ha (RICE INDICA EFF),pest or weed control at 125 g/ha (RICE INDICA EFF),pest or weed control at 250 g/ha (RICE INDICA EFF),pest or weed control at 500 g/ha (RICE INDICA EFF),pest or weed control at 1000 g/ha (RICE INDICA EFF),pest or weed control at 100 ppm (Botrytis cinerea),plant response (YELLOW NUTSEDGE; 0064 G/HA),plant response (YELLOW NUTSEDGE; 0125 G/HA),plant response (YELLOW NUTSEDGE; 0250 G/HA),plant response (YELLOW NUTSEDGE; 0500 G/HA),plant response (YELLOW NUTSEDGE; 1000 G/HA),MIC [2],other results
"C=C(c1ccccc1Cl)C(O)(Cn1cncn1)c1ccc(Cl)cc1Cl (centres unmarked) [Example 33, 2-(2,4-Dichlorophenyl)-3-(2-chlorophenyl)-1-(1H-1,2,4-triazol-1-yl)-3-buten-2-ol]",24%,0%,0%,0%,0%,0%,0%,0%,0%,0%,0%,30%,70%,56%,0,0,0,0,40,0.03 µg/mL,pest or weed control at 20 ppm ([1]; 20 PPM): 89%; plant response (GIANT FOXTAIL; POSTEMERGENCE 0250 GM/HA): 0%; plant response (GIANT FOXTAIL; POSTEMERGENCE 0500 GM/HA): 0%; plant response (GIANT FOXTAIL; POSTEMERGENCE 1000 GM/HA): 0%; plant response (GIANT FOXTAIL; PREEMERGENCE 0250 GM/HA): 0%; plant response (GIANT FOXTAIL; PREEMERGENCE 0500 GM/HA): 0%; plant response (GIANT FOXTAIL; PREEMERGENCE 1000 GM/HA): 0%; pest or weed control at 5000 g/ha (Rhizoctonia solani): 0%; plant response (PURPLE NUTSEDGE; POSTEMERGENCE 0250 GM/HA): 0%; plant response (PURPLE NUTSEDGE; POSTEMERGENCE 0500 GM/HA): 0%; plant response (PURPLE NUTSEDGE; POSTEMERGENCE 1000 GM/HA): 0%; plant response (PURPLE NUTSEDGE; PREEMERGENCE 0250 GM/HA): 0%; plant response (PURPLE NUTSEDGE; PREEMERGENCE 0500 GM/HA): 0%; plant response (PURPLE NUTSEDGE; PREEMERGENCE 1000 GM/HA): 0%; pest or weed control at 20 ppm (Botrytis cinerea; 20 PPM): 37%; pest or weed control at 5000 g/ha [3]: 0%
"C=C(c1ccccc1)C(O)(Cn1cncn1)c1ccc(Cl)cc1Cl (centres unmarked) [Example 50, 2-(2,4-Dichlorophenyl)-3-phenyl-1-(1H-1,2,4-triazol-1-yl)-3-buten-2-ol]",46%,0%,0%,0%,0%,0%,0%,0%,0%,40%,30%,70%,80%,98%,0,0,0,30,50,0.1 µg/mL,pest or weed control at 100 ppm [1]: 95%; plant response (GIANT FOXTAIL; POSTEMERGENCE 0250 GM/HA): 0%; plant response (GIANT FOXTAIL; POSTEMERGENCE 0500 GM/HA): 0%; plant response (GIANT FOXTAIL; PREEMERGENCE 0064 GM/HA): 20%; plant response (GIANT FOXTAIL; PREEMERGENCE 0125 GM/HA): 65%; plant response (GIANT FOXTAIL; PREEMERGENCE 0250 GM/HA): 75%; plant response (GIANT FOXTAIL; PREEMERGENCE 0500 GM/HA): 85%; plant response (PURPLE NUTSEDGE; POSTEMERGENCE 0250 GM/HA): 0%; plant response (PURPLE NUTSEDGE; POSTEMERGENCE 0500 GM/HA): 0%; plant response (PURPLE NUTSEDGE; PREEMERGENCE 0064 GM/HA): 0%; plant response (PURPLE NUTSEDGE; PREEMERGENCE 0125 GM/HA): 0%; plant response (PURPLE NUTSEDGE; PREEMERGENCE 0250 GM/HA): 0%; plant response (PURPLE NUTSEDGE; PREEMERGENCE 0500 GM/HA): 30%; pest or weed control at 5000 g/ha [3]: 0%
"C=C(c1ccccc1)C(O)(Cn1cncn1)c1ccc(F)cc1F (centres unmarked) [Example 52, 2-(2,4-Difluorophenyl)-3-phenyl-1-(1H-1,2,4-triazol-1-yl)-3-buten-2-ol]",0%,–,–,–,–,–,0%,0%,–,–,–,–,–,95%,–,–,–,–,–,0.03 µg/mL,pest or weed control at 100 ppm [1]: 94%; plant response (REDROOT PIGWEED; POSTEMERGENCE 0064 GM/HA): 0%; plant response (REDROOT PIGWEED; POSTEMERGENCE 0125 GM/HA): 50%; plant response (REDROOT PIGWEED; POSTEMERGENCE 0250 GM/HA): 90%; plant response (REDROOT PIGWEED; POSTEMERGENCE 0500 GM/HA): 90%; plant response (REDROOT PIGWEED; PREEMERGENCE 0250 GM/HA): 100%; pest or weed control at 5000 g/ha [3]: 0%; plant response (BLACK NIGHTSHAD; POSTEMERGENCE 0064 GM/HA): 0%; plant response (BLACK NIGHTSHAD; POSTEMERGENCE 0125 GM/HA): 0%; plant response (BLACK NIGHTSHAD; POSTEMERGENCE 0250 GM/HA): 10%; plant response (BLACK NIGHTSHAD; POSTEMERGENCE 0500 GM/HA): 70%; plant response (BLACK NIGHTSHAD; PREEMERGENCE 0250 GM/HA): 100%
C=C(c1ccc(Cl)cc1Cl)C(O)(Cn1cncn1)c1ccccc1F (centres unmarked) [Example 107],–,0%,0%,40%,60%,30%,–,–,0%,0%,30%,40%,50%,–,0,0,50,30,95,–,plant response (REDROOT PIGWEED; PREEMERGENCE 0250 GM/HA): 100%; plant response (BLACK NIGHTSHAD; PREEMERGENCE 0250 GM/HA): 80%
